Reference: US11472844B2, “Peptidomimetics, method of synthesis and uses thereof” (priority 2017, dated 2022)
*: point of attachment. X1 = CC[N+]1=C(/C=C/C=C/C=C2N(CCCCCC(=O)NCCN3C(=O)CC(*)C3=O)c3ccc(S(=O)(=O)O)cc3C2(C)C)C(C)(C)c2cc(S(=O)(=O)[O-])ccc21

Key:
trypsin = trypsin (Sus scrofa, UniProt P00761); conditions: trypsin digestion, 37°C, pH8, followed up to 24 h
Experimental: Trypsin proteolysis. MUB40 (SEQ ID NO: 3)-Cy5 and RI-MUB40 (SEQ ID NO: 2)-Cy5 were dissolved in 50 mM ammonium bicarbonate, pH 8. Prior to digestion and owing to the propensity of maleimide derivatives to undergo ring-opening in a basic environment (Fontaine et al., 2015), we incubated both peptides at 37° C. overnight. Ring-opening completion was checked before trypsin addition. […] Lyophilized trypsin (Thermo scientific) was reconstituted using 50 mM acetic acid, diluted with 50 mM ammonium bicarbonate and added to the peptide solution so as to obtain a final peptide concentration of 0.25 mg/mL and a protease to protein ratio of 1:20 (w/w). Samples were directly incubated on the injection sampler thermostated at 37° c. HPLC and LC-MS analyses were performed as previously described above, applying a 15% to 40% linear gradient of acetonitrile in 10 mM ammonium acetate over 20 minutes.
Hydrolysis experiments were done in solution at 37° c., pH8 and monitored by HPLC by measuring the peak area of the remaining intact peptides.

[1] = test system: neutrophils recruited to mouse colon infected with Shigella sonnei; test: Mouse model of shigellosis, staining of fixed colon sections; conditions: 1 μg/ml
Experimental: Mouse. The experimental protocol was approved by the french Ethic Committee Paris (number 20150042). Female 6 week-old BALB/cJRi mice from Charles River were orally gavaged with streptomycin (100 μL of 200 mg/ml solution) 24 hours prior to Shigella sonnei infection. Mice were orally gavaged with 10^10 CFUs S. sonnei carrying pMW211 expressing DsRed and monitored for 24 hours. At the end of the experiment, animals were sacrificed and tissue sections from the colon were extracted. Colon sections were placed in 4% paraformaldehyde (PFA) solution for 2 hours. PFA fixed tissue sections were passaged for 16 hours in 16% sucrose followed by 4 hours in 30% sucrose solutions. Fixed colon slices were embedded in OCT (VWR 361603E) and flash frozen in dry ice chilled 2-methylbutane. Frozen blocks were stored at −80 until sectioning. […] Tissue slices were prepared for fluorescence microscopy by incubation in 0.1% saponin for 1 hour followed by incubation with fluorescent markers specific for actin (phalloidin-FITC, Life Technology) and MUB40-Cy5 at a final 1 μg/ml concentration. […]
Spinning disk microscope. Mouse colons infected with S. sonnei pDsRed were imaged on a Bruker Opterra fluorescence microscope using a Zeiss Plan-Apochromat 63×/1.40 oil immersion lense and Prairie View software version 5.3. […]

[2] = test system: mouse circulating neutrophils; test: Labelling of fixed mouse neutrophils; assay type: cell-based
Experimental: Polymorphonuclear neutrophils purification. Human polymorphonuclear neutrophils were purified as described previously (Monceaux et al. 2016). Briefly, plasma was removed by centrifugation (450×g, 15 min); blood cells were resuspended in 0.9% NaCl solution supplemented with 0.72% Dextran. After red blood cells sedimentation, white blood cells were pelleted and further separated on a two layer Percoll (GE Healthcare) (51%−42%) by centrifugation (at 240×g, 20 min). PBMC (top layer) were isolated from polymorphonuclear neutrophils (bottom layer). Red blood cells were removed from the latter fraction using CD235a (glycophorin) microbeads (negative selection) (Miltenyi Biotec). PBMCs and polymorphonuclear neutrophils were resuspended in the autologous plasma. Guinea pig and mouse polymorphonuclear neutrophils were purified with the same procedure.

trypsin, sequence (P00761 9-231): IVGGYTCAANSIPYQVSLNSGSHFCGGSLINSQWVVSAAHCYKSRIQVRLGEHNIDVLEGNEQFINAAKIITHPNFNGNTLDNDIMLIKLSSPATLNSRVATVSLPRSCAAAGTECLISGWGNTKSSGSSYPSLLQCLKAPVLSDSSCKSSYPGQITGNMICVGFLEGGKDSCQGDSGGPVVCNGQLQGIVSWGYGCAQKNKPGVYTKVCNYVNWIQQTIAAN

For “Ac-C(X1)TAEGIKKFEGDGYELFKDNFPAGEKFDNDDTNDQFYTVIF-NH2 [Cy5-MUB40#1]”, the “degradation by trypsin (in words)” value (trypsin) was “almost completely degraded within 3 h”, the “labelling of recruited neutrophils” value [1] was “specifically labeled” and the labelling of neutrophils [2] was “efficiently labeled”.
